# Measured values: US9453008B2, “Antithrombotic and antiatherosclerotic agent and method for producing same (variants)” (PROTON OOO, priority 2011, dated 2016)
# “Also recorded” adds a separate entry of the source.
# Legend:
# [1] = tested on: pressor effect of angiotensin I; assay: Pressor effect of angiotensin I after intravenous administration in normotensive narcotized rats; assay type: in vivo, rat
# Protocol: The experiments were performed on spontaneously hypertensive (SHT) and normotensive (NT) narcotized male rats using intravenous administration of the tested compounds. The ability of the compound to reduce arterial blood pressure (BP) in SHT rats and prevent spasmogenic reactions to noradrenalin (NA) and angiotensin I (AI).
# The effects of the compound of formula I on the pressor effects of noradrenaline (NA, 10-15 μg/kg), mesatonum (M, 5 μg/kg) and angiotensin (AI, 5 μg/kg) were studied on normotensive narcotized […]. Antihypertensive action of the compound of formula I was assessed relative to the pressor effects of the control administration of the aforementioned compounds.
# [2] = tested on: ADP-induced platelet aggregation; assay: ADP-induced platelet aggregation of rabbit blood plasma, in vitro; assay type: cell-based; settings: concentrations of 10^−3-10^−7 M; listed as compound of formula I
# Protocol: Antiplatelet activity was assessed by the effect of the compound on platelet aggregation of rabbit blood plasma, induced by ADP (adenosine diphosphate) and arachidonic acid. Platelet aggregation was assessed by the change of optical density of plasma. Studies were performed using both intravenous administration, in comparison with sodium nitroprusside, and oral administration, in comparison with acetylsalicylic acid. Compound I was used in concentrations of 10^−3-10^−7 M (parenteral administration) and in 4-8 and 12 mg/kg doses (oral administration).
# human neutrophils = assay: FMLP-induced generation of superoxide anion radical by human neutrophils; assay type: cell-based; settings: neutrophils weakened by pathological processes
# Source text: We have also studied the effect of the compound on formylmethionyl-leucyl-phenylalanine (FMLP)—induced generation of superoxide anion radical (O2^−.) by human neutrophils, weakened by pathological processes (histiocytosis, stage 2 hypertension). Such experimentation was chosen due to the fact, that, in order to perform a complete phagocytosis with complete destruction of pathogenic microorganisms, phagocytes, including neutrophils, generate the so-called reactive oxygen species (ROS), including oxygen radicals and compounds easily converting into such radicals. Superoxide anion radical (O2^−.) hydroxyl radical (OH.) and lipid hydroxyperoxides (ROO*) also belong to AOF. All these compounds have one unpaired electron on outer molecular orbital, giving them high reactivity, which causes their interaction with cell molecules: proteins, RNA, DNA, etc, accompanied by the loss of their biological activity.
# rat hemostasis = assay: Model of parenchymal hemorrhage (bleeding time) after oral administration; assay type: in vivo
# Protocol: The model of parenchymal hemorrhage characterizes hemostasis through the stimulation of coagulation cascade. Usually, it is rather difficult to obtain considerable change of bleeding time in these models with resorptive-acting compounds. Direct-action anticoagulants (heparin, heparinoids) prolong bleeding time in these models only in high doses, while the effect is detected at different time (up to 3 hours after the administration). Indirect-action […] drugs (oxycoumarines, indandiones, etc.) usually begin to increase bleeding after a certain delay period (12-48 hours after the administration), which is easily explainable by the modern understanding of their mechanism of action: they stop the biosynthesis of blood clotting plasma factors II, VII, IX, X, while the duration of delay period is determined by the amount of these factors, produced in the liver before the administration of vitamin K reductase inhibitors (oxycoumarines, indandiones).
# The duration of parenchymal hemorrhage in the control group was 88.9±1.2 s. Test groups of animals used in the experiments 60 minutes after oral administration of the compound of formula I. After the administration of 8 mg/kg dose the duration of parenchymal hemorrhage in test group increased by 71% compared to original condition, it further increased to 220.6±3.4 s after another hour.
# mice = assay: Acute toxicity (LD50); assay type: in vivo; settings: mice, internal administration
# Source text: (§1) Acute toxicity of the compound in mice in internal administration is 8.9±0.75 g/kg, cumulation after 28 days administration is weak (lethality less than 50%).
# Acute toxicity (LD50) = assay type: in vivo; settings: mouse, in vivo, other: internal administration
# Source text: as §1
smiles,measurement,setting,value
"CN1CC(CO)O/C1=C(C#N)/C=C1/Nc2ccccc2C1=O (stereo not drawn) [Compound I, 2-[2-Cyano-2-[5-(hydroxymethyl)-3-methyl-1,3-oxazolidin-2-ylidene]ethylidene]indolin-3-one]",Inhibition of pressor reaction (%) induced by Angiotensin I,"[1]; 0.01 mg/kg intravenous, 0 - absence of effect",0%
same,Inhibition of pressor reaction (%) induced by Angiotensin I,[1]; 0.05 mg/kg intravenous,10%
same,Inhibition of pressor reaction (%) induced by Angiotensin I,"[1]; 0.1 mg/kg intravenous, listed as Compound of formula I",25-30%
same,Inhibition of pressor reaction (%) induced by Angiotensin I,"[1]; 0.1 mg/kg intravenous, listed as compound of formula I",25%
same,Inhibition of pressor reaction (%) induced by Angiotensin I,"[1]; 0.5 mg/kg intravenous, 0 - absence of effect",30%
same,Inhibition of pressor reaction (%) induced by Angiotensin I,[1]; 1.0 mg/kg intravenous,30-40%
same,In vitro antiplatelet activity (inhibition of ADP-induced platelet aggregation),[2],significantly inhibits; also recorded: as good as that of acetylsalicylic acid
same,Effect on reduced ability of human neutrophils to generate reactive oxygen species,human neutrophils,briefly enhances
same,Increase of duration of parenchymal hemorrhage compared to original condition,"rat hemostasis; 8 mg/kg oral, 60 minutes after administration",71%
same,Duration of parenchymal hemorrhage,"rat hemostasis; 8 mg/kg oral, after another hour (control 88.9±1.2 s)",220.6 ± 3.4 s
same,Duration of parenchymal hemorrhage vs control,"rat hemostasis; 8 mg/kg oral, end of experiment (240 min)",did not differ from the control group
same,Duration of bleeding,"rat hemostasis; 16 mg/kg oral, first 60 min of the observation",increased twofold
same,Effect on rat hemostasis in the model of parenchymal hemorrhage,"rat hemostasis; rat, in vivo",statistically significantly slows down rat hemostasis
same,Acute toxicity,mice,8.9 ± 0.75 g/kg
same,LD50,Acute toxicity (LD50),8900 mg/kg
